Measured values taken from patent publication US20250092345A1, “INTER ORGAN PLATFORM FOR MICROPHYSIOLOGICAL SYSTEM ON A CHIP” (THE TRUSTEES OF COLUMBIA UNIVERSITY IN THE CITY OF NEW YORK, priority 2020, published 2025).

Assays:
IGF-1 receptor = target: T1, IGF-1 receptor (Homo sapiens, UniProt P08069); assay: Phospho-IGF1R ELISA in ES cell monolayers; assay type: cell-based; conditions: 12 μM for 6 hours
T1 construct: endogenous in cells; host or cells: RD-ES (ATCC HTB-166) and SK-N-MC (ATCC HTB-10) Ewing sarcoma cell lines

[1] = cited from earlier work
[2] = test system: non-metastatic and metastatic ES cell lines (RD-ES, SK-N-MC); assay: MTT viability assay in ES cell monolayers; assay type: cell-based, human; conditions: 0-100 μM over 72 hours
Method: (§1) MTT viability assay was used to determine drug toxicity, with luminescence generated by viable cells measured at the endpoint (10^4 cells per well, mean±s.e.m., n=3). […] In order to determine cancer cell viability, cells were lysed and treated with luciferin using a Bright-Glo™ assay, with subsequent luminescence measured (10^4 cells per well, mean±s.e.m., n=3).
(§2) Cell viability was analyzed using a previously established protocol. Cancer cell viability was measured for GFP-Luciferase labelled cancer cells using ONE-Glo luciferase substrate that was prepared according to manufacturer's protocol (Promega). Samples were collected following 3, 7, and 21 days cycles of linsitinib treatment. Where noted, longitudinal cell viability was also assessed using luminescence, though at the cost of signal strength. Briefly, in vivo grade VivoGlo™ Luciferin (Promega) was made at a 200× stock concentration (30 mg/ml) in water, added to sample culture media at a 1:200 dilution, and scanned using a spectrophotometer (Biotek). Some of the IC50 values were determined using cell viability data generated using an MTT assay (RealTime-Glo™ MT Cell Viability Assay, Promega) that were analyzed according to manufacturer's protocol.

[3] = test system: engineered cardiac tissues; assay: Cardiac tissue in the integrated platform with microfluidic perfusion, linsitinib; assay type: cell-based, human; conditions: after linsitinib exposure
Method: (§3) The TE-ES and cardiac tissues were then cultured in the integrated platform with perfusion of mixed media. Linsitinib was introduced into the reservoir and delivered to tissues via circulation of perfusate and diffusion into the tissues.
Human iPS cell-derived cardiomyocytes at day 13 of differentiation were combined with normal human dermal fibroblasts (NHDF; Lonza) at a ratio of 75% human iPS-derived cardiomyocytes and 25% NHDF, for a total of 1 million cells per tissue. The hydrogel was formed by mixing 33 mg/mL of human fibrinogen (Sigma-Aldrich) with 25 U/mL of human thrombin (Sigma-Aldrich), at an 84:16 ratio. […]
To measure the cardiac contractility online, we took contractility videos of the tissues that were analyzed using the native MATLAB code we previously developed. Tissue contractility was measured by tracking the change in tissue area as a function of time. […] Absolute differences in cell area from the baseline frame were then calculated to create a time course of cell area changes over time. The resulting time courses were analyzed using a native MATLAB (MATHWorks) automated peak finding algorithm to determine locations of maximum cell contractions in the time profiles. Beat period lengths were determined from the length of time between the pairs of local maxima, and the beat frequencies were determined by inverting beat periods. […]

[4] = test system: non-metastatic and metastatic GFP-luciferase ES cell lines (RD-ES, SK-N-MC); assay: Luminescence viability of GFP-luciferase ES cell monolayers; assay type: cell-based, human; conditions: 12 μM over 72 hours; both the non-metastatic and metastatic cell lines
Method: as §1, §2

[5] = test system: non-metastatic TE-ES bone tumor tissues; assay: Non-metastatic ES bone tumor in the integrated platform with microfluidic perfusion, linsitinib; assay type: cell-based, human; conditions: 12 μM
Method: as §3
ES cells, when co-cultured with mesenchymal stem cells and exposed to physiological shear-stress in a perfusion bioreactor, can become resistant to IGF-1R inhibitors. Therefore, we evaluated the role of flow derived shear stress in this newly found resistance of non-metastatic TE-ES bone tumor tissues to the IGF-1R inhibitor linsitinib. Linsitinib was introduced into the platform (12 µM, 3 days), either via circulation or directly into the TE-ES tissue chamber (FIG. 34G), to distinguish effects of flow-derived stimuli from drug diffusion into the tissues.
Upon maturation, bone tumors in the platform were exposed to a 1:1 mixture of the bone tumor and cardiac tissue media, supplemented by 12 μM linsitinib in the treated groups. […]
as §2, with “Samples were collected following 3, 7, and 21 days cycles of linsitinib treatment.” left out, “Briefly, in vivo grade VivoGlo™ Luciferin (Promega) was made at a 200× stock concentration (30 mg/ml) in water, added to sample culture media at a 1:200 dilution, and scanned using a spectrophotometer (Biotek).” left out
In order to confirm linsitinib mechanism of action in ES cells, both RD-ES and SK-N-MC monolayers were treated with 12 μM linsitinib for 6 hours, lysed, measured for protein quantity using a Pierce™ BCA Protein Assay Kit (ThermoFisher), and loaded equally onto a Human Phospho-IGF1R ELISA (RayBiotech) to semi-quantitatively determine phosphorylated levels of the IGF-1 receptor, according to manufacturer's instructions. Osteocalcin (OCN), osteopontin (OPN), and lactic acid dehydrogenase (LDH) secreted levels were all measured using a similar approach. […]

T1 sequence (P08069 31-1367): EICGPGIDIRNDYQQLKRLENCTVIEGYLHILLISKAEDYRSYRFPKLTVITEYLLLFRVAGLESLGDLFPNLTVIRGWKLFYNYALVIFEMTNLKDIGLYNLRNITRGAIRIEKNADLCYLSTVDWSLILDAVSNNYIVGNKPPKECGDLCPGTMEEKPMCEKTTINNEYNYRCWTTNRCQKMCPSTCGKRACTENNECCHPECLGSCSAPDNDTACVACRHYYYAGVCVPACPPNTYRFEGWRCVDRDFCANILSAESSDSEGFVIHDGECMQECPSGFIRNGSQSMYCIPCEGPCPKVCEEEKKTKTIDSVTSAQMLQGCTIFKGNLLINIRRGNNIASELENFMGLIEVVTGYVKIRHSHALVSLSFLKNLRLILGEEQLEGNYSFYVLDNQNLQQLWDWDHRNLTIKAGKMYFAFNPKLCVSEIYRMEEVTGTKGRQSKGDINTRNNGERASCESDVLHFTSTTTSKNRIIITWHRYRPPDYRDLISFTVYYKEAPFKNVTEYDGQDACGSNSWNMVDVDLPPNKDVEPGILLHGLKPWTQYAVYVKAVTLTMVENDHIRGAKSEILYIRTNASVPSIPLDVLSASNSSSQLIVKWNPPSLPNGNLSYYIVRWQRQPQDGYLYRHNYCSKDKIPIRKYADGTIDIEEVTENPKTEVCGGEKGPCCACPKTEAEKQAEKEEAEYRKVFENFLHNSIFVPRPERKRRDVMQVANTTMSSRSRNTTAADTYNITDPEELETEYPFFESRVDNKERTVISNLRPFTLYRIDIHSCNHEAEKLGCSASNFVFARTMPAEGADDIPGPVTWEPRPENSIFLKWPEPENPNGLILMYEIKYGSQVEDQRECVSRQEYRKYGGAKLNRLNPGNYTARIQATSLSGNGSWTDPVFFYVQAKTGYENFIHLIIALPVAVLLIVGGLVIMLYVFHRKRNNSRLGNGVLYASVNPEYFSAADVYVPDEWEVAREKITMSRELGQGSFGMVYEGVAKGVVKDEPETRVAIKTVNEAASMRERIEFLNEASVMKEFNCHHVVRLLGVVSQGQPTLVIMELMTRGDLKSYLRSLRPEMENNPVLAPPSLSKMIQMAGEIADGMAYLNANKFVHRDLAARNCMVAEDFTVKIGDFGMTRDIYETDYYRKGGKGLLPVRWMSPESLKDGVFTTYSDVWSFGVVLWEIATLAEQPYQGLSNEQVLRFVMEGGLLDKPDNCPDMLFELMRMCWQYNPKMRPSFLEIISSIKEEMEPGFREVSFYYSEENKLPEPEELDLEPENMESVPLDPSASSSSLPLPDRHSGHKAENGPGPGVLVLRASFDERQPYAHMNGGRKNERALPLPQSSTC

- levels of phosphorylated IGF-1R (IGF-1 receptor): significant decreases
- inotropic response to subsequent isoproterenol [3]: expected inotropic response
SMILES: C[C@]1(O)C[C@@H](c2nc(-c3ccc4ccc(-c5ccccc5)nc4c3)c3c(N)nccn32)C1 [linsitinib]
- clinical outcome in ES ([1]; Phase II clinical trial, no patients completing the trial): unable to stop progression of ES
- atrial fibrillation ([1]; clinical trials of other types of cancer): 3.75-5%
- IC50 (MTT viability assay) [2]: two orders of magnitude lower than the effective plasma concentration observed in patients
- drug efficacy (luminescence viability) [4]: significant drug efficacy
- response to the drug (luminescence) ([5]; 3 days, directly into the tissue chamber (immediate exposure)): fast response
- drug response (luminescence) ([5]; 3 days, perfused integrated platform): insignificant drug response
- secretion of LDH, vehicle vs linsitinib treated ([5]; 72 hours, perfused integrated platform): no significant difference
